Among the data in patent publication US10647713B2 (Nimbus Lakshmi, Inc., priority 2016, dated 2020) are Kd values, retold here.

pKd: −log10 of the molar value.

Chain of human TYK2 (JH2domain-pseudokinase) (P29597 556-888): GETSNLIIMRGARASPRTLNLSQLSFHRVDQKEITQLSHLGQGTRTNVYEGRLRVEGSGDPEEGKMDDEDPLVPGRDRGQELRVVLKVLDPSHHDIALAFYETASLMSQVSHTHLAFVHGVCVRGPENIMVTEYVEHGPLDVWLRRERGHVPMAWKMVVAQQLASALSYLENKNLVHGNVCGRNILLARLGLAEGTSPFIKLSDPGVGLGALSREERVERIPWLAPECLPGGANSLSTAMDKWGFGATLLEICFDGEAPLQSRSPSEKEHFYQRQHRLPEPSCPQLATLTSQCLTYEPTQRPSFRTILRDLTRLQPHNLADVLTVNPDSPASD

For the test, the target named is human TYK2 (JH2domain-pseudokinase) (Homo sapiens (Human), UniProt P29597). The test can be described thus: TYK2 JH2 Domain Binding Assay (KINOMEscan, DiscoveRx). The conditions noted are these: 11-point dilution, duplicate. A digest of the protocol:
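TYK2 JH2 (G556–D888)–NFkB DBD fusion, DNA-tagged, from HEK293 extracts (<0.1 nM) competed against immobilised biotinylated ligand for 1 h at room temperature, 0.9% DMSO. Bead-retained kinase quantified by qPCR; Kd from 11-point 3-fold series (top 30,000 nM, duplicate), Hill fit with slope −1.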
Compound `COc1c(Nc2cc(Nc3cnc(N4CCOCC4)c(C#N)n3)nc3[nH]c(C(F)F)nc23)cccc1-c1nnn(C)n1` [I-47, 6-((2-(difluoromethyl)-7-((2-methoxy-3-(2-methyl-2H-tetrazol-5-yl)phenyl)amino)-3H-imidazo[4,5-b]pyridin-5-yl)amino)-3-morpholinopyrazine-2-carbonitrile] had a pKd of 8.00 to 9.00.
In the case of `COc1c(Nc2cc(Nc3cnc(N4CC[C@@H](OC)C4)c(C#N)n3)nc3[nH]c(C(F)F)nc23)cccc1-c1nnn(C)n1` [I-48, (R)-6-((2-(difluoromethyl)-7-((2-methoxy-3-(2-methyl-2H-tetrazol-5-yl)phenyl)amino)-3H-imidazo[4,5-b]pyridin-5-yl)amino)-3-(3-methoxypyrrolidin-1-yl)pyrazine-2-carbonitrile], the pKd is 8.00 to 9.00.
For `COc1c(Nc2cc(Nc3ccc(C(C)(C)OC)c(C#N)n3)nc3[nH]c(C(F)F)nc23)cccc1-c1nnn(C)n1` [I-49, 6-((2-(difluoromethyl)-7-((2-methoxy-3-(2-methyl-2H-tetrazol-5-yl)phenyl)amino)-3H-imidazo[4,5-b]pyridin-5-yl)amino)-3-(2-methoxypropan-2-yl)picolinonitrile] the value was below 8.00.
The compound `COC1CN(c2ccc(Nc3cc(NC(=O)C4CC4)nc4[nH]c(C(F)F)nc34)c(N(C)S(C)(=O)=O)c2)C1` [I-50, N-(2-(difluoromethyl)-7-((4-(3-methoxyazetidin-1-yl)-2-(N-methylmethylsulfonamido)phenyl)amino)-3H-imidazo[4,5-b]pyridin-5-yl)cyclopropanecarboxamide] gave a pKd of 8.00 to 9.00.
Compound `COc1c(Nc2cc(NC(=O)C3CC3)nc3[nH]c(C(F)F)nc23)cccc1-n1cnc(C)n1` [I-51, N-(2-(difluoromethyl)-7-((2-methoxy-3-(3-methyl-1H-1,2,4-triazol-1-yl)phenyl)amino)-3H-imidazo[4,5-b]pyridin-5-yl)cyclopropanecarboxamide] showed a pKd below 8.00.
Compound `COc1c(Nc2cc(NC(=O)C3CC3)nc3[nH]c(C(F)F)nc23)cccc1-c1nn(C)nc1C` [I-53, N-(2-(difluoromethyl)-7-((3-(2,5-dimethyl-2H-1,2,3-triazol-4-yl)-2-methoxyphenyl)amino)-3H-imidazo[4,5-b]pyridin-5-yl)cyclopropanecarboxamide] showed a pKd below 8.00.
The same measure for `COc1c(Nc2cc(NC(=O)C3CC3)nc3[nH]c(C(F)F)nc23)cccc1-n1nc(C)nc1C` [I-54, N-(2-(difluoromethyl)-7-((3-(3,5-dimethyl-1H-1,2,4-triazol-1-yl)-2-methoxyphenyl)amino)-3H-imidazo[4,5-b]pyridin-5-yl)cyclopropanecarboxamide]: below 8.00; for `COc1c(Nc2cc(NC(=O)C3CC3)nc3[nH]c(C(F)F)nc23)cccc1-n1ncnc1C` [I-55, N-(2-(difluoromethyl)-7-((2-methoxy-3-(5-methyl-1H-1,2,4-triazol-1-yl)phenyl)amino)-3H-imidazo[4,5-b]pyridin-5-yl)cyclopropanecarboxamide]: below 8.00.
Compound `COc1c(Nc2cc(Nc3cnc(C(C)(C)OC)c(C)n3)nc3[nH]c(C(F)F)nc23)cccc1-c1nnn(C)n1` [I-56, 2-(difluoromethyl)-N7-(2-methoxy-3-(2-methyl-2H-tetrazol-5-yl)phenyl)-N5-(5-(2-methoxypropan-2-yl)-6-methylpyrazin-2-yl)-3H-imidazo[4,5-b]pyridine-5,7-diamines] gave a pKd of 8.00 to 9.00.
Turning to `CS(=O)(=O)c1cc(Cl)ccc1Nc1cc(NC(=O)C2CC2)nc2[nH]c(C(F)F)nc12` [I-58, N-(7-((4-chloro-2-(methylsulfonyl)phenyl)amino)-2-(difluoromethyl)-3H-imidazo[4,5-b]pyridin-5-yl)cyclopropanecarboxamide], the pKd was 9.00 to 9.30.
In the case of `Cc1ncc(Nc2cc(Nc3ccccc3N(C)S(C)(=O)=O)c3nc(C(F)F)[nH]c3n2)nc1C` [I-59, N-(2-((2-(difluoromethyl)-5-((5,6-dimethylpyrazin-2-yl)amino)-3H-imidazo[4,5-b]pyridin-7-yl)amino)phenyl)-N-methylmethanesulfonamide], the negative-log Kd (pKd) was 9.30 to 10.00.
`Cc1ccc(Nc2cc(Nc3ccccc3N(C)S(C)(=O)=O)c3nc(C(F)F)[nH]c3n2)nc1C#N` [I-60, N-(2-((5-((6-cyano-5-methylpyridin-2-yl)amino)-2-(difluoromethyl)-3H-imidazo[4,5-b]pyridin-7-yl)amino)phenyl)-N-methylmethanesulfonamides] had a pKd above 10.00.
The same measure for `Cn1ccc(-c2ccc(Nc3cc(NC(=O)C4CC4)nc4[nH]c(C(F)F)nc34)c(S(C)(=O)=O)c2)n1` [I-61, N-(2-(difluoromethyl)-7-((4-(1-methyl-1H-pyrazol-3-yl)-2-(methylsulfonyl)phenyl)amino)-3H-imidazo[4,5-b]pyridin-5-yl)cyclopropanecarboxamide]: 9.30 to 10.00.
For the compound `Cn1cnc(-c2ccc(Nc3cc(NC(=O)C4CC4)nc4[nH]c(C(F)F)nc34)c(S(C)(=O)=O)c2)c1` [I-62, N-(2-(difluoromethyl)-7-((4-(1-methyl-1H-imidazol-4-yl)-2-(methylsulfonyl)phenyl)amino)-3H-imidazo[4,5-b]pyridin-5-yl)cyclopropanecarboxamide], the pKd was 9.30 to 10.00.
`Cc1ccn(-c2ccc(Nc3cc(NC(=O)C4CC4)nc4[nH]c(C(F)F)nc34)c(S(C)(=O)=O)c2)n1` [I-63, N-(2-(difluoromethyl)-7-((4-(3-methyl-1H-pyrazol-1-yl)-2-(methylsulfonyl)phenyl)amino)-3H-imidazo[4,5-b]pyridin-5-yl)cyclopropanecarboxamide] showed a pKd of 9.00 to 9.30.
With `CN(c1cc(-c2cn(C)cn2)ccc1Nc1cc(NC(=O)C2CC2)nc2[nH]c(C(F)F)nc12)S(C)(=O)=O` [I-64, N-(2-(difluoromethyl)-7-((4-(1-methyl-1H-imidazol-4-yl)-2-(N-methylmethylsulfonamido)phenyl)amino)-3H-imidazo[4,5-b]pyridin-5-yl)cyclopropanecarboxamide], the pKd was 9.30 to 10.00.
In the case of `CN(c1cc(-c2cnn(C)c2)ccc1Nc1cc(NC(=O)C2CC2)nc2[nH]c(C(F)F)nc12)S(C)(=O)=O` [I-65, N-(2-(difluoromethyl)-7-((4-(1-methyl-1H-pyrazol-4-yl)-2-(N-methylmethylsulfonamido)phenyl)amino)-3H-imidazo[4,5-b]pyridin-5-yl)cyclopropanecarboxamide], the pKd was 9.30 to 10.00.
On to `COc1c(Nc2cc(Nc3cnc(C(C)(C)OC)c(C#N)n3)nc3[nH]c(C(F)F)nc23)cccc1-c1nnn(C)n1` [I-80, 6-((2-(difluoromethyl)-7-((2-methoxy-3-(2-methyl-2H-tetrazol-5-yl)phenyl)amino)-3H-imidazo[4,5-b]pyridin-5-yl)amino)-3-(2-methoxypropan-2-yl)pyrazine-2-carbonitrile], for which the pKd was 8.00 to 9.00.
As for `CS(=O)(=O)c1cc(F)ccc1Nc1cc(NC(=O)C2CC2)nc2[nH]c(C(F)F)nc12` [I-85, N-(2-(difluoromethyl)-7-((4-fluoro-2-(methylsulfonyl)phenyl)amino)-3H-imidazo[4,5-b]pyridin-5-yl)cyclopropanecarboxamide], the pKd was 9.00 to 9.30.
Turning to `CN(c1ccccc1Nc1cc(Nc2cccc(C(F)(F)F)n2)nc2[nH]c(C(F)F)nc12)S(C)(=O)=O` [I-87, N-(2-((2-(difluoromethyl)-5-((6-(trifluoromethyl)pyridin-2-yl)amino)-3H-imidazo[4,5-b]pyridin-7-yl)amino)phenyl)-N-methylmethanesulfonamide], the pKd was 9.00 to 9.30.
For `CN(c1cc(N2CCC2)ccc1Nc1cc(NC(=O)C2CC2)nc2[nH]c(C(F)F)nc12)S(C)(=O)=O` [I-89, N-(7-((4-(azetidin-1-yl)-2-(N-methylmethylsulfonamido)phenyl)amino)-2-(difluoromethyl)-3H-imidazo[4,5-b]pyridin-5-yl)cyclopropanecarboxamide] the value was 9.00 to 9.30.
For `Cc1ncc(Nc2cc(Nc3ccc(Cl)cc3N(C)S(C)(=O)=O)c3nc(C(F)F)[nH]c3n2)nc1C` [I-93, N-(5-chloro-2-((2-(difluoromethyl)-5-((5,6-dimethylpyrazin-2-yl)amino)-3H-imidazo[4,5-b]pyridin-7-yl)amino)phenyl)-N-methylmethanesulfonamide], the pKd was 9.30 to 10.00.
As to `CN(c1cc(Cl)ccc1Nc1cc(Nc2cccc(C#N)n2)nc2[nH]c(C(F)F)nc12)S(C)(=O)=O` [I-94, N-(5-chloro-2-((5-((6-cyanopyridin-2-yl)amino)-2-(difluoromethyl)-3H-imidazo[4,5-b]pyridin-7-yl)amino)phenyl)-N-methylmethanesulfonamide], the negative logarithm of the Kd (pKd) is 9.00 to 9.30.
In turn, `Cc1ccc(Nc2cc(NC(=O)C3CC3)nc3[nH]c(C(F)F)nc23)c(N(C)S(C)(=O)=O)c1` [I-95, N-(2-(difluoromethyl)-7-((4-methyl-2-(N-methylmethylsulfonamido)phenyl)amino)-3H-imidazo[4,5-b]pyridin-5-yl)cyclopropanecarboxamide] had a pKd of 9.30 to 10.00.
The compound `COCc1ccc(Nc2cc(NC(=O)C3CC3)nc3[nH]c(C(F)F)nc23)c(N(C)S(C)(=O)=O)c1` [I-96, N-(2-(difluoromethyl)-7-((4-(methoxymethyl)-2-(N-methylmethylsulfonamido)phenyl)amino)-3H-imidazo[4,5-b]pyridin-5-yl)cyclopropanecarboxamide] had a negative logarithm of the Kd (pKd) of 9.30 to 10.00.
In the case of `Cc1ccc(Nc2cc(Nc3cnc(C)c(C)n3)nc3[nH]c(C(F)F)nc23)c(N(C)S(C)(=O)=O)c1` [I-97, N-(2-((2-(difluoromethyl)-5-((5,6-dimethylpyrazin-2-yl)amino)-3H-imidazo[4,5-b]pyridin-7-yl)amino)-5-methylphenyl)-N-methylmethanesulfonamide], the pKd was below 8.00.
`COc1c(Nc2cc(NC(=O)C3CC3)nc3[nH]c(C)nc23)cccc1-c1nnn(C)n1` [I-98, N-(7-((2-methoxy-3-(2-methyl-2H-tetrazol-5-yl)phenyl)amino)-2-methyl-3H-imidazo[4,5-b]pyridin-5-yl)cyclopropanecarboxamide] gave a pKd of 9.00 to 9.30.

By pKd is commonly meant −log10 of the Kd, conventionally taken in molar units. High values mean a small Kd, low ones a large Kd.
